# In patent publication US20160000938A1, “REAGENT FOR DIAGNOSIS OF OSTEOARTHRITIS COMPRISING PEPTIDE PROBE OF APOPEP-1” (priority 2013, published 2016):
# “Also recorded” adds a separate entry of the source.
# How the values were obtained:
# [1] = test system: ATDC5 chondrocyte cell treated with staurosporine; assay: In vitro binding to apoptotic chondrocytes (immunocytochemistry); format: cell-based; conditions: fluorescence staining; for binding to apoptotic cells: chondrocytes treated with staurosporine; for binding to live cells: live chondrocytes
# Protocol: ATDC5 chondrocyte cell was maintained in a mixture of DMEM and Ham's F-12 (DMEM/F12) medium (Lonza, USA) containing 5% fetal bovine serum (FBS) (Gibco-BRL, USA), 10 ug/ml of human transferrin (Sigma) and 3×10^-8 M of sodium selenite (Sigma) and penicillin/streptomycin. Apoptosis was induced by incubating cells with 0.5 uM Staurosporine (cell signaling, USA) for the indicated time periods. Apoptotic stages were determined by staining the cells with annexin V and ApoPep-1 conjugated with flamma 675. For immunocytochemistry staining, cells were incubated with 1% bovine serum albumin at 37° C. for 30 min for blocking and then binding with 10 μM flamma 675-conjugated peptide at 4° C. for 1 h. Cells were then costained with Alexa-594-annexin V (Invitrogen, Carlsbad, Calif., USA) for 15 min at room temperature in binding buffer (10 mM HEPES, pH 7.4, 140 mM NaCl, and 2.5 mM CaCl2). After fixation, cells were incubated with DAPI for nuclear staining and mounted with a ProLong® Antifade Kit.
# [2] = test system: arthritic joints of DMM mice; assay: In vivo optical imaging of fluorescence-labeled ApoPep-1 probe in DMM OA mice; design: species or system C57BL/6N mice; conditions: for OARSI grade of OA at which the probe detects OA / apoptotic chondrocytes: DMM model
# Protocol: (§1) Male mice at 12 weeks of age were divided into three groups: Sham-ApoPep-1, OA-Control Peptide and OA-ApoPep-1 group (n=4-8/group). For OA model, we performed DMM surgery as described in previous studies (8, 23).
# (§2) FlammaTM675-ApoPep-1 was intravenously (i.v.) injected from the tail vain (1 mM 100 μl/20 g) and allowed to circulate for the indicated time periods. In vivo optical imaging was conducted by scanning the mice under anesthesia by inhalation of isofluran (jw pharmaceutical, South Korea) in 80% N2O/20% O2 using Optix Explore (ART, Montreal, Canada). The excitation/emission wavelengths for FlammaTM675 were 676 nm/704 nm. Ex vivo optical imaging was performed with extracted hind limbs by the same method. FlammaTM675-NSSSVDK was used as the control peptide (18).
# [3] = test system: arthritic joints of DMM mice; assay: Ex vivo optical imaging of extracted hind limbs of DMM mice; format: in vivo, C57BL/6N mice
# Protocol: as §1, §2
# [4] = test system: apoptotic chondrocytes of DMM-operated articular cartilage; assay: In situ immunofluorescence staining and TUNEL assay of OA cartilage cryo-sections; design: species or system mice
# Protocol: Hind limbs of mice were fixed with 4% paraformaldehyde in 0.1 M phosphate-buffered saline (PBS, pH 7.4) for 12 hours, and decalcified with 10% ethylene-diamine tetraacetic acid (EDTA, pH 7.4) for 3 weeks. Decalcified tissues were dipped in 20% sucrose/PBS solution overnight and embedded in OCT compound (Tissue-Tek) for making the frozen samples. Frozen samples were cut at 10 μm thickness from femur to tibia range for joint visible. Cut slices from each animal were selected for the staining with same primary antibodies to comparison at the same area of joint articular cartilage. The section was treated with a blocking solution (0.1% tween-20, 1% bovine serum albumin (BSA), 5% normal donkey serum in PBS) after washing with PBS, and then incubated at 4° C. 1 h with the primary antibodies such as rabbit polyclonal collagen 2 antibody (1:200; abcam, MA, USA), mouse monoclonal MMP-13 antibody (1:200; abcam, MA, USA). After PBS rinses, the sections were incubated with Alexa-594 or Alexa-488-conjugated secondary antibody for 30 min. Thereafter, the sections were incubated with 4′,6′-diamidino-2-phenylindole (DAPI, Sigma-Aldrich, St Louis, Mo., USA) for nuclear staining then mounted with a ProLong® Antifade Kit (Invitrogen, USA). […]
Substance,binding to apoptotic cells [1],binding to live cells [1],time after DMM operation at which the probe can detect apoptotic change ([2]; DMM OA model),OARSI grade of OA at which the probe detects OA / apoptotic chondrocytes [2],OARSI grade of OA at which the probe detects OA / apoptotic chondrocytes ([2]; listed as ApoPep1),"ApoPep-1 fluorescent signal from arthritic joints compared with 4 weeks ([2]; i.v. injection, 8 weeks after DMM operation)","optimal time point for diagnosis after injection ([2]; i.v. injection, DMM mice)","time after injection after which ApoPep-1 binding is undetectable ([2]; i.v. injection, DMM mice)","time after injection of maximal ApoPep-1 binding ([2]; i.v. injection, DMM mice)","fluorescent signal time course after probe injection ([2]; images from 30 minutes to 24 hours after i.v. administration, DMM mice)","ApoPep-1 fluorescent signal from arthritic joints ([2]; in vivo, i.v. injection, 4 weeks after DMM operation)","ApoPep-1 fluorescent signal from arthritic joints compared with sham-ApoPep-1 and OA-control-Peptide groups ([2]; in vivo, i.v. injection, one week after DMM operation)","ApoPep-1 fluorescent signal from arthritic joints compared with sham-ApoPep-1 and OA-control-Peptide groups ([2]; in vivo, i.v. injection, two weeks after DMM operation)",ApoPep-1 fluorescent signal from arthritic joints ([3]; 4 weeks after DMM operation),ApoPep-1 fluorescent signal from arthritic joints compared with sham-ApoPep-1 and OA-control-Peptide groups ([3]; two weeks after DMM operation),correlation of TUNEL staining with ApoPep-1 signals ([4]; DMM models 2 weeks after surgery),"localisation of ApoPep-1 relative to type II collagen and MMP13 ([4]; DMM-operated articular cartilage, 2 weeks after surgery)"
"annexin V: a 36 kDa protein that binds to phosphatidylserine, early marker of apoptotic cell death [reference compound]",bind to apoptotic cells,not to live cells,–,–,–,–,–,–,–,–,–,–,–,–,–,–,–
CQRPPR [ApoPep-1],bind to apoptotic cells,not to live cells,2 weeks,grade I OA; also recorded: Grades I,Grade II,reduced,30 min,8 h,30 min,clearly detectable from arthritic joint sat 30 minutes after the probe injection and decreased according to time course,maximal,no significant difference,detected strongly; also recorded: significant increase,maximal,significant increase,strongly correlated,detected where type II collagen decreased and MMP13 increased
